PubChem BioAssay AID256 (DTP/NCI, 2004)
Several values for one entry are separate records, joined by “and”; a condition that tells them apart may be missing. Equal entries are not always repeated. Inconclusive results and toxic doses are left out. The calls were made as follows: active = survival T/C of 150% or more; inactive = T/C below 125% in these data.

Test system: CD2F1 mice, L1210 leukemia ip, survival T/C
Assay: NCI In Vivo Anticancer Drug Screen. Data for tumor model L1210 Leukemia (intraperitoneal) in CD2F1 (CDF1) mice
Details: endpoint: mean survival time, higher = longer survival
Method in brief: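 Tumor-bearing mice (transplanted tumor) were split into treated and vehicle control groups, and the measured endpoint of each treated group was divided by that of its vehicle controls.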

[1] = dose: 12.5 mg/kg/injection, schedule: Q01DX009 (ip), vehicle: other
[2] = dose: 50.0 mg/kg/injection, schedule: Q01DX009 (ip), vehicle: saline sonified
[3] = dose: 100.0 mg/kg/injection, schedule: Q04DX003 (ip), vehicle: saline with Tween-80
[4] = dose: 200.0 mg/kg/injection, schedule: Q04DX003 (ip), vehicle: saline with Tween-80
[5] = dose: 400.0 mg/kg/injection, schedule: Q04DX003 (ip), vehicle: saline with Tween-80
[6] = dose: 100.0 mg/kg/injection, schedule: Q04DX003 (ip), vehicle: saline
[7] = dose: 200.0 mg/kg/injection, schedule: Q04DX003 (ip), vehicle: saline
[8] = dose: 400.0 mg/kg/injection, schedule: Q04DX003 (ip), vehicle: saline
[9] = dose: 100.0 mg/kg/injection, schedule: Q01DX009 (ip), vehicle: saline with Tween-80
[10] = dose: 200.0 mg/kg/injection, schedule: Q01DX009 (ip), vehicle: saline with Tween-80
[11] = dose: 400.0 mg/kg/injection, schedule: Q01DX009 (ip), vehicle: saline with Tween-80
[12] = dose: 50.0 mg/kg/injection, schedule: Q01DX009 (ip), vehicle: Klucel (hydroxypropylcellulose) (HPC)
[13] = dose: 100.0 mg/kg/injection, schedule: Q01DX009 (ip), vehicle: Klucel (hydroxypropylcellulose) (HPC)
[14] = dose: 200.0 mg/kg/injection, schedule: Q01DX009 (ip), vehicle: Klucel (hydroxypropylcellulose) (HPC)
[15] = dose: 100.0 mg/kg/injection, schedule: Q01DX001 (ip), vehicle: saline with Tween-80
[16] = dose: 200.0 mg/kg/injection, schedule: Q01DX001 (ip), vehicle: saline with Tween-80
[17] = dose: 50.0 mg/kg/injection, schedule: Q01DX009 (ip), vehicle: saline with Tween-80
[18] = dose: 25.0 mg/kg/injection, schedule: Q01DX009 (ip), vehicle: Klucel (hydroxypropylcellulose) (HPC)

Measured: T/C

[N-]=[N+]=CC(=O)CCC(=O)C=[N+]=[N-]
inactive: [1] 106 % of control | dose: 25.0 mg/kg/injection, schedule: Q01DX009 (ip), vehicle: other 90 % of control

C=CCOc1ccncc1
inactive: dose: 12.5 mg/kg/injection, schedule: Q01DX009 (ip), vehicle: saline sonified 101 % of control | dose: 12.5 mg/kg/injection, schedule: Q04DX003 (ip), vehicle: saline with Tween-80 93 % of control | dose: 25.0 mg/kg/injection, schedule: Q01DX009 (ip), vehicle: saline sonified 100 % of control | dose: 25.0 mg/kg/injection, schedule: Q04DX003 (ip), vehicle: saline with Tween-80 93 % of control | [2] 101 % of control | dose: 50.0 mg/kg/injection, schedule: Q04DX003 (ip), vehicle: saline with Tween-80 93 % of control

COC(=O)Nc1cccc(OC(=O)N(C(C)C)C(C)C)c1
inactive: [3] 94 % of control | [4] 97 % of control | [5] 96 % of control

CCC1COCC1Cc1cncn1C (centres undefined)
inactive: dose: 75.0 mg/kg/injection, schedule: Q01DX001 (ip), vehicle: saline 97 % of control | dose: 150.0 mg/kg/injection, schedule: Q01DX001 (ip), vehicle: saline 101 % of control | dose: 300.0 mg/kg/injection, schedule: Q01DX001 (ip), vehicle: saline 100 % of control

CC12CCCC1=[N+]1CCCCC1CC2=O (centres undefined)
inactive: [6] 101 % of control | [7] 101 % of control

COCCOCCOCCOCCOCCN
inactive: [6] 103 % of control | [7] 101 % of control | [8] 103 % of control

O=S(=O)(Cl)c1ccc(-c2ccc(S(=O)(=O)Cl)cc2)cc1
inactive: dose: 100.0 mg/kg/injection, schedule: Q04DX003 (ip), vehicle: Klucel (hydroxypropylcellulose) (HPC) 95 % of control | dose: 200.0 mg/kg/injection, schedule: Q04DX003 (ip), vehicle: Klucel (hydroxypropylcellulose) (HPC) 106 % of control | dose: 400.0 mg/kg/injection, schedule: Q04DX003 (ip), vehicle: Klucel (hydroxypropylcellulose) (HPC) 103 % of control

CCN(CC)CC[C-]=O.[NH-]CC[NH-].[Pd]
inactive: dose: 3.13 mg/kg/injection, schedule: Q04DX003 (ip), vehicle: water 101 % of control | dose: 6.25 mg/kg/injection, schedule: Q04DX003 (ip), vehicle: water 101 % of control | dose: 12.5 mg/kg/injection, schedule: Q04DX003 (ip), vehicle: water 101 % of control | dose: 25.0 mg/kg/injection, schedule: Q04DX003 (ip), vehicle: water 93 % of control | dose: 50.0 mg/kg/injection, schedule: Q04DX003 (ip), vehicle: water 93 % of control

CC(C)Oc1ccc(N2C(=O)C(C)CNC2=S)cc1 (centres undefined)
inactive: dose: 75.0 mg/kg/injection, schedule: Q01DX001 (ip), vehicle: other 96 % of control | dose: 150.0 mg/kg/injection, schedule: Q01DX001 (ip), vehicle: other 97 % of control | dose: 300.0 mg/kg/injection, schedule: Q01DX001 (ip), vehicle: other 96 % of control

COC(=O)CCC(=O)C=[N+]=[N-]
inactive: dose: 1.5 mg/kg/injection, schedule: Q01DX009 (ip), vehicle: other 94 % of control | dose: 3.1 mg/kg/injection, schedule: Q01DX009 (ip), vehicle: other 94 % of control | dose: 6.2 mg/kg/injection, schedule: Q01DX009 (ip), vehicle: other 91 % of control | [1] 91 % of control

Cc1c(C=NC(=O)c2ccccc2)c2ccccc2n1C
inactive: dose: 100.0 mg/kg/injection, schedule: Q04DX002 (ip), vehicle: saline with Tween-80 100 % of control | dose: 200.0 mg/kg/injection, schedule: Q04DX002 (ip), vehicle: saline with Tween-80 108 % of control | dose: 400.0 mg/kg/injection, schedule: Q04DX002 (ip), vehicle: saline with Tween-80 96 % of control

Cc1c(N)cccc1F
inactive: [2] 95 % of control | [6] 95 % of control | [7] 95 % of control

COc1ccc(C2OC23CC(C)(C)c2ccccc2C3=O)cc1 (centres undefined)
inactive: dose: 100.0 mg/kg/injection, schedule: Q01DX009 (ip), vehicle: other 107 % of control | dose: 200.0 mg/kg/injection, schedule: Q01DX009 (ip), vehicle: other 100 % of control | dose: 400.0 mg/kg/injection, schedule: Q01DX009 (ip), vehicle: other 91 % of control

O=C(N/N=C/c1ccccc1O)c1ccncc1
inactive: [9] 98 % of control | [3] 98 % of control | [10] 95 % of control | [4] 96 % of control | [11] 98 % of control | [5] 98 % of control

O=C(O)CS(=O)(=O)O
inactive: dose: 50.0 mg/kg/injection, schedule: Q04DX002 (ip), vehicle: saline 100 % of control | dose: 100.0 mg/kg/injection, schedule: Q04DX002 (ip), vehicle: saline 100 % of control | dose: 200.0 mg/kg/injection, schedule: Q04DX002 (ip), vehicle: saline 100 % of control

N=C(N)c1ccc(OCCCCOc2ccc(N)cc2)cc1
inactive: [12] 101 % of control | [13] 94 % of control | [14] 119 % of control

COc1ccccc1F
inactive: dose: 10.0 mg/kg/injection, schedule: Q01DX009 (ip), vehicle: saline with Tween-80 100 % of control | dose: 20.0 mg/kg/injection, schedule: Q01DX009 (ip), vehicle: saline with Tween-80 102 % of control | dose: 40.0 mg/kg/injection, schedule: Q01DX009 (ip), vehicle: saline with Tween-80 102 % of control

Nn1c(=O)[nH][nH]c1=O
inactive: [9] 96 % of control | [3] 93 % of control | [10] 96 % of control | [4] 93 % of control | [11] 98 % of control | [5] 98 % of control

O=[N+]([O-])c1cccc(/C=C/C2(CCl)OCCO2)c1
inactive: [15] 101 % of control | [16] 116 % of control

O=c1oc(-c2ccccc2)nc2c(Cl)ccc(Cl)c12
inactive: dose: 90.0 mg/kg/injection, schedule: Q04DX003 (ip), vehicle: other 107 % of control | dose: 135.0 mg/kg/injection, schedule: Q04DX003 (ip), vehicle: other 97 % of control | dose: 200.0 mg/kg/injection, schedule: Q04DX003 (ip), vehicle: other 119 % of control | dose: 300.0 mg/kg/injection, schedule: Q04DX003 (ip), vehicle: other 102 % of control

Cc1cc(C)c(S(=O)(=O)n2ccnc2)c(C)c1
inactive: [12] 94 % of control | [13] 94 % of control | [14] 105 % of control

O=C1OC(=O)C2C3C=CC(C4C=CC43)C12 (centres undefined)
inactive: [17] 102 % of control | [15] 101 % of control | [9] 102 % of control | [16] 98 % of control | [10] 97 % of control

CCCCn1c(Cc2ccccc2)nc2c1C(=O)c1ccccc1C2=O
inactive: [6] 103 % of control | [7] 101 % of control | [8] 98 % of control

COc1ccc(Cl)[n+]([O-])n1
inactive: dose: 3.12 mg/kg/injection, schedule: Q01DX009 (ip), vehicle: Klucel (hydroxypropylcellulose) (HPC) 94 % of control and 103 % of control | dose: 6.25 mg/kg/injection, schedule: Q01DX009 (ip), vehicle: Klucel (hydroxypropylcellulose) (HPC) 97 % of control and 101 % of control | dose: 12.5 mg/kg/injection, schedule: Q01DX009 (ip), vehicle: Klucel (hydroxypropylcellulose) (HPC) 96 % of control and 106 % of control | [18] 98 % of control and 106 % of control | [12] 94 % of control and 101 % of control | [13] 101 % of control and 104 % of control

Cc1ccc(S(=O)(=O)Nc2ccc(I)cc2)cc1
inactive: [17] 94 % of control | [9] 97 % of control | [3] 92 % of control | [10] 95 % of control | [4] 94 % of control | [5] 86 % of control

COC1=CC=C2C3Cc4ccc(OC)c(O)c4C2(C1)CN3C (centres undefined)
inactive: [18] 102 % of control | [12] 104 % of control | [13] 103 % of control

CSc1nc(N)cc(=O)[nH]1
inactive: dose: 50.0 mg/kg/injection, schedule: Q01DX001 (ip), vehicle: Klucel (hydroxypropylcellulose) (HPC) 98 % of control | dose: 100.0 mg/kg/injection, schedule: Q01DX001 (ip), vehicle: Klucel (hydroxypropylcellulose) (HPC) 96 % of control | dose: 200.0 mg/kg/injection, schedule: Q01DX001 (ip), vehicle: Klucel (hydroxypropylcellulose) (HPC) 86 % of control
